{"source": "patent US20060069132A1", "about": "“Azolecarboxamide herbicides” (priority 2004, published 2006)", "key": {"barnyardgrass [1]": {"tested_on": "barnyardgrass", "experiment": "Test B pre-/postemergence herbicide test", "format": "in vivo, Echinochloa crus-galli", "conditions": "for Barnyardgrass plant response rating: postemergence", "method_in_brief": "(§1)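 Pre: seeds sown, then sprayed. Post: 1–4-leaf plants (2–18 cm) sprayed at the same time. Paddy: flooded, treated at 2-leaf stage. Formulation: non-phytotoxic solvent with surfactant. Greenhouse 13–15 days; visual 0–100 score relative to controls.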"}, "Surinam grass": {"tested_on": "Surinam grass", "experiment": "Test B pre-/postemergence herbicide test", "format": "in vivo, Urochloa decumbens", "conditions": "for Surinam Grass plant response rating: postemergence", "method_in_brief": "(§2)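 Test chemicals in a non-phytotoxic solvent mixture with surfactant were applied preemergence to seeded species and postemergence to plants 2-18 cm tall (1- to 4-leaf stage); rice and barnyardgrass were also tested in a flooded paddy at the 2-leaf stage. Visual rating versus controls after 13-15 days in greenhouse, scale 0 (no effect) to 100 (complete control).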"}, "cocklebur": {"tested_on": "cocklebur", "experiment": "Test B pre-/postemergence herbicide test", "format": "in vivo, Xanthium strumarium", "conditions": "for Cocklebur plant response rating: postemergence", "method_in_brief": "as §1"}, "corn": {"tested_on": "corn", "experiment": "Test B pre-/postemergence herbicide test", "format": "in vivo, Zea mays", "conditions": "for Corn plant response rating: postemergence", "method_in_brief": "as §2"}, "large crabgrass": {"tested_on": "large crabgrass", "experiment": "Test B pre-/postemergence herbicide test", "format": "in vivo, Digitaria sanguinalis", "conditions": "for Crabgrass, Large plant response rating: postemergence", "method_in_brief": "as §2"}, "giant foxtail": {"tested_on": "giant foxtail", "experiment": "Test B pre-/postemergence herbicide test", "format": "in vivo, Setaria faberi", "conditions": "for Foxtail, Giant plant response rating: postemergence", "method_in_brief": "as §2"}, "lambsquarters": {"tested_on": "lambsquarters", "experiment": "Test B pre-/postemergence herbicide test", "format": "in vivo, Chenopodium album", "conditions": "for Lambsquarters plant response rating: postemergence", "method_in_brief": "as §2"}, "morningglory": {"tested_on": "morningglory", "experiment": "Test B pre-/postemergence herbicide test", "format": "in vivo, Ipomoea coccinea", "conditions": "for Morningglory plant response rating: postemergence", "method_in_brief": "as §1"}, "pigweed": {"tested_on": "pigweed", "experiment": "Test B pre-/postemergence herbicide test", "format": "in vivo, Amaranthus retroflexus", "conditions": "for Pigweed plant response rating: postemergence", "method_in_brief": "as §2"}, "velvetleaf": {"tested_on": "velvetleaf", "experiment": "Test B pre-/postemergence herbicide test", "format": "in vivo, Abutilon theophrasti", "conditions": "for Velvetleaf plant response rating: postemergence", "method_in_brief": "as §2"}, "blackgrass": {"tested_on": "blackgrass", "experiment": "Test B postemergence herbicide test", "format": "in vivo, Alopecurus myosuroides", "conditions": "postemergence", "method_in_brief": "(§3)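 Read-out: visual comparison with controls, scored 0 to 100, where 100 means complete control and 0 no effect. Formulated chemicals were applied postemergence to plants 2–18 cm tall (1- to 4-leaf), or to flooded-paddy plants at the 2-leaf stage, then held 13 to 15 days under glass.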"}, "wheat": {"tested_on": "wheat", "experiment": "Test B postemergence herbicide test", "format": "in vivo, Triticum aestivum", "design": "key to Wheat plant response rating: 0 = no effect, 100 = complete control", "conditions": "postemergence", "method_in_brief": "(§4)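 Postemergence plants were sprayed with formulated test chemicals at 2 to 18 cm height (1- to 4-leaf stage); paddy species were grown to the 2-leaf stage. After 13 to 15 days in a greenhouse, injury was rated visually against untreated controls on a 0–100 scale (0 = no effect, 100 = complete control).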"}, "wild oat": {"tested_on": "wild oat", "experiment": "Test B postemergence herbicide test", "format": "in vivo, Avena fatua", "conditions": "postemergence", "method_in_brief": "as §4"}, "rice [2]": {"tested_on": "rice", "experiment": "Test B flooded paddy test", "format": "in vivo, Oryza sativa", "conditions": "1000 g ai/ha, scale 0 to 100 (0 no effect, 100 complete control)", "method_in_brief": "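Paddy species grown to the 2-leaf stage under flooding; blackgrass sprayed postemergence at 2–18 cm (1- to 4-leaf stage). Plants kept in a greenhouse for 13 to 15 days, then visually rated against controls on 0 (no effect) to 100 (complete control).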"}, "[3]": {"tested_on": "small flower umbrella sedge", "experiment": "Test B flooded paddy test", "format": "in vivo, Cyperus difformis", "conditions": "1000 g ai/ha, scale 0 to 100 (0 no effect, 100 complete control)", "method_in_brief": "as §3"}, "ducksalad [4]": {"tested_on": "ducksalad", "experiment": "Test B flooded paddy test", "format": "in vivo, Heteranthera limosa", "conditions": "1000 g ai/ha, scale 0 to 100 (0 no effect, 100 complete control)", "method_in_brief": "as §3"}, "barnyardgrass [5]": {"tested_on": "barnyardgrass", "experiment": "Test B flooded paddy test", "format": "in vivo, Echinochloa crus-galli", "conditions": "1000 g ai/ha, scale 0 to 100 (0 no effect, 100 complete control)", "method_in_brief": "as §3"}, "rice [6]": {"tested_on": "rice", "experiment": "Test C flooded paddy test", "format": "in vivo, Oryza sativa", "method_in_brief": "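Injury scored visually against controls on a 0 (no effect) to 100 (complete control) scale, 12 to 14 days after treatment in greenhouse. Flooded paddy plants treated at 2-leaf stage; postemergence plants at 1- to 4-leaf stage, 2 to 18 cm tall.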"}, "[7]": {"tested_on": "smallflower umbrella sedge", "experiment": "Test C flooded paddy test", "format": "in vivo, Cyperus difformis"}, "ducksalad [8]": {"tested_on": "ducksalad", "experiment": "Test C flooded paddy test", "format": "in vivo, Heteranthera limosa"}, "barnyardgrass [9]": {"tested_on": "barnyardgrass", "experiment": "Test C flooded paddy test", "format": "in vivo, Echinochloa crus-galli", "method_in_brief": "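Postemergence sprays applied to plants 2 to 18 cm tall (1- to 4-leaf stage); paddy species grown to 2-leaf stage under flooding. After 12 to 14 days in greenhouse, visual rating versus untreated controls on 0–100 scale (0 no effect, 100 complete control).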"}, "[10]": {"conditions": "125 g ai/ha, 0 is no effect, 100 is complete control, preemergence"}, "[11]": {"conditions": "125 g ai/ha, visual rating, scale 0 (no effect) to 100 (complete control)"}, "[12]": {"conditions": "500 g ai/ha, visual rating, 0 = no effect, 100 = complete control, preemergence"}, "[13]": {"conditions": "500 g ai/ha, scale 0 to 100, 0 is no effect, 100 is complete control"}, "[14]": {"conditions": "125 g ai/ha, scale 0 to 100 (0 no effect, 100 complete control)"}, "[15]": {"conditions": "250 g ai/ha, scale of 0 to 100, 0 is no effect, 100 is complete control"}, "[16]": {"conditions": "500 g ai/ha, visual rating after 12 to 14 days, scale 0 to 100 (0 no effect, 100 complete control)"}}, "data": [{"smiles": "Cc1nn(C(C)(C)C)cc1C(=O)Nc1cc(C(=O)N(C)C)ccc1F", "note": "[Compound 344]", "values": [{"measurement": "Plant response rating (0 to 100 scale), Barnyardgrass", "setting": "barnyardgrass [1]; [10]", "result": 20}, {"measurement": "Barnyardgrass plant response rating", "setting": "barnyardgrass [1]; [11]", "result": 0}, {"measurement": "Plant response rating, Barnyardgrass", "setting": "barnyardgrass [1]; [12]", "result": 70}, {"measurement": "Barnyardgrass plant response rating", "setting": "barnyardgrass [1]; [13]", "result": 10}, {"measurement": "Plant response rating (0 to 100 scale), Surinam Grass", "setting": "Surinam grass; [10]", "result": 30}, {"measurement": "Surinam Grass plant response rating", "setting": "Surinam grass; [11]", "result": 0}, {"measurement": "Plant response rating, Surinam Grass", "setting": "Surinam grass; [12]", "result": 100}, {"measurement": "Surinam Grass plant response rating", "setting": "Surinam grass; [13]", "result": 10}, {"measurement": "Plant response rating (0 to 100 scale), Cocklebur", "setting": "cocklebur; [10]", "result": 20}, {"measurement": "Cocklebur plant response rating", "setting": "cocklebur; [11]", "result": 0}, {"measurement": "Plant response rating, Cocklebur", "setting": "cocklebur; [12]", "result": 70}, {"measurement": "Cocklebur plant response rating", "setting": "cocklebur; [13]", "result": 10}, {"measurement": "Plant response rating (0 to 100 scale), Corn", "setting": "corn; [10]", "result": 10}, {"measurement": "Corn plant response rating", "setting": "corn; [11]", "result": 10}, {"measurement": "Plant response rating, Corn", "setting": "corn; [12]", "result": 90}, {"measurement": "Corn plant response rating", "setting": "corn; [13]", "result": 10}, {"measurement": "Plant response rating (0 to 100 scale), Crabgrass, Large", "setting": "large crabgrass; [10]", "result": 60}, {"measurement": "Crabgrass, Large plant response rating", "setting": "large crabgrass; [11]", "result": 0}, {"measurement": "Crabgrass, Large plant response rating", "setting": "large crabgrass; [13]", "result": 10}, {"measurement": "Plant response rating (0 to 100 scale), Foxtail, Giant", "setting": "giant foxtail; [10]", "result": 10}, {"measurement": "Foxtail, Giant plant response rating", "setting": "giant foxtail; [11]", "result": 10}, {"measurement": "Plant response rating, Foxtail, Giant", "setting": "giant foxtail; [12]", "result": 60}, {"measurement": "Foxtail, Giant plant response rating", "setting": "giant foxtail; [13]", "result": 10}, {"measurement": "Plant response rating (0 to 100 scale), Lambsquarters", "setting": "lambsquarters; [10]", "result": 90}, {"measurement": "Lambsquarters plant response rating", "setting": "lambsquarters; [11]", "result": 20}, {"measurement": "Plant response rating, Lambsquarters", "setting": "lambsquarters; [12]", "result": 100}, {"measurement": "Lambsquarters plant response rating", "setting": "lambsquarters; [13]", "result": 40}, {"measurement": "Plant response rating (0 to 100 scale), Morningglory", "setting": "morningglory; [10]", "result": 10}, {"measurement": "Morningglory plant response rating", "setting": "morningglory; [11]", "result": 10}, {"measurement": "Plant response rating, Morningglory", "setting": "morningglory; [12]", "result": 80}, {"measurement": "Morningglory plant response rating", "setting": "morningglory; [13]", "result": 50}, {"measurement": "Plant response rating (0 to 100 scale), Pigweed", "setting": "pigweed; [10]", "result": 90}, {"measurement": "Pigweed plant response rating", "setting": "pigweed; [11]", "result": 20}, {"measurement": "Plant response rating, Pigweed", "setting": "pigweed; [12]", "result": 90}, {"measurement": "Pigweed plant response rating", "setting": "pigweed; [13]", "result": 50}, {"measurement": "Plant response rating (0 to 100 scale), Velvetleaf", "setting": "velvetleaf; [10]", "result": 40}, {"measurement": "Velvetleaf plant response rating", "setting": "velvetleaf; [11]", "result": 20}, {"measurement": "Velvetleaf plant response rating", "setting": "velvetleaf; [13]", "result": 30}, {"measurement": "Blackgrass plant response rating", "setting": "blackgrass; [11]", "result": 0}, {"measurement": "Blackgrass plant response rating", "setting": "blackgrass; [13]", "result": 0}, {"measurement": "Wheat plant response rating", "setting": "wheat; [11]", "result": 0}, {"measurement": "Wheat plant response rating", "setting": "wheat; [13]", "result": 10}, {"measurement": "Oat, Wild plant response rating", "setting": "wild oat; [11]", "result": 0}, {"measurement": "Oat, Wild plant response rating", "setting": "wild oat; [13]", "result": 0}, {"measurement": "Rice plant response rating", "setting": "rice [2]", "result": 70}, {"measurement": "Sedge, Umbrella plant response rating", "setting": "[3]", "result": 80}, {"measurement": "Ducksalad plant response rating", "setting": "ducksalad [4]", "result": 80}, {"measurement": "Barnyardgrass plant response rating", "setting": "barnyardgrass [5]", "result": 60}, {"measurement": "Rice plant response rating", "setting": "rice [6]; 62 g ai/ha, scale 0 to 100", "result": 0}, {"measurement": "Rice plant response rating", "setting": "rice [6]; [14]", "result": 0}, {"measurement": "Rice plant response rating", "setting": "rice [6]; [15]", "result": 0}, {"measurement": "Plant response rating, Rice", "setting": "rice [6]; [16]", "result": 15}, {"measurement": "Sedge, Umbrella plant response rating", "setting": "[7]; 62 g ai/ha, scale 0 to 100", "result": 0}, {"measurement": "Sedge, Umbrella plant response rating", "setting": "[7]; [14]", "result": 75}, {"measurement": "Sedge, Umbrella plant response rating", "setting": "[7]; [15]", "result": 75}, {"measurement": "Plant response rating, Sedge, Umbrella", "setting": "[7]; [16]", "result": 85}, {"measurement": "Ducksalad plant response rating", "setting": "ducksalad [8]; 62 g ai/ha, scale 0 to 100", "result": 0}, {"measurement": "Ducksalad plant response rating", "setting": "ducksalad [8]; [14]", "result": 0}, {"measurement": "Ducksalad plant response rating", "setting": "ducksalad [8]; [15]", "result": 20}, {"measurement": "Plant response rating, Ducksalad", "setting": "ducksalad [8]; [16]", "result": 45}, {"measurement": "Barnyardgrass plant response rating", "setting": "barnyardgrass [9]; 62 g ai/ha, scale 0 to 100 (0 no effect, 100 complete control)", "result": 0}, {"measurement": "Barnyardgrass plant response rating", "setting": "barnyardgrass [9]; [14]", "result": 0}, {"measurement": "Barnyardgrass plant response rating", "setting": "barnyardgrass [9]; [15]", "result": 0}, {"measurement": "Plant response rating, Barnyardgrass", "setting": "barnyardgrass [9]; [16]", "result": 0}]}]}
